Counter-ions that a name gives are not always drawn. Marks after values point to notes of the source that are not given here.
How the values were obtained:
telemetered dogs = assay: Cardiovascular safety in telemetered dogs, i.v. MN-221 with nebulized albuterol; format: in vivo; conditions: for heart rate, agent alone: albuterol inhaled 5 or 10 ug/kg, MN-221 i.v. over 15 min 0.3, 3 or 30 ug/kg; for MAP or QTc, agent alone: either agent at any dose
Description: In a separate study with telemetered dogs at the Lovelace Respiratory Research Institute, the effect of i.v. MN-221 administration in addition to nebulized albuterol was performed to assess cardiovascular changes and safety of the combination therapy. Albuterol was administered by inhalation at 5 or 10 ug/kg and MN-221 was intravenously administered over 15 min at 0.3, 3, or 30 ug/kg. […] See, FIG. 4.

Hu β2 [1] = molecular target: T1, Hu β2 (Homo sapiens, UniProt P07550); assay: Cell bioassay, cAMP accumulation, human β2 in CHO; format: cell-based
T1 construct: host or cells: CHO
T1 sequence (P07550 whole entry): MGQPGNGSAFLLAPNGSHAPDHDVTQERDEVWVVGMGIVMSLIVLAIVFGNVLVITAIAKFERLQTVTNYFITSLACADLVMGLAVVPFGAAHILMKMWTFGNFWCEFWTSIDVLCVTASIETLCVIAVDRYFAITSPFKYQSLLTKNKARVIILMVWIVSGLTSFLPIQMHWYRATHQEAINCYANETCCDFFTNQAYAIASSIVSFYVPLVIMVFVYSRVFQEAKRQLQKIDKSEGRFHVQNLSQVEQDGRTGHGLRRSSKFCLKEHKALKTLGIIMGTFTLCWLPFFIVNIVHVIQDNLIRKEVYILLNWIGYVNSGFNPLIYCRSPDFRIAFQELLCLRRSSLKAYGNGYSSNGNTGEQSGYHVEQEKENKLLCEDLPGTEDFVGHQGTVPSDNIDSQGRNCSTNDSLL
Source text: (§1) The Active Agent (MN-221 a/k/a bedoradrine or its pharmaceutically acceptable salts) administered intravenously allows it to distribute and partition into the congested lung tissue of AEA patients and allow bronchodilation without undue cardiovascular side effects. Table 1, below, provides an example of the adrenoceptor action profile for MN-221 determined experimentally: [table]

ragweed sensitized dogs = assay: Reversal of ragweed-induced bronchoconstriction in sensitized dogs; format: in vivo; conditions: i.v. 0.04 to 0.4 mg/kg; between 0.75 and 6.7 min after dosing; p<0.001 up to 4.5 min, p<0.01 up to 6.7 min
Hu β2 [2] = molecular target: T1, Hu β2; assay: Competitive binding (Cerep 14320), human β2
Source text: as §1

patients with severe AEA = assay: Clinical study of MN-221 plus SOC in emergency department patients with AEA; format: in vivo, humans
Description: MN-221 was tested at escalating doses of 240 μg to 1,080 μg in patients with AEA treated in emergency departments (EDs). The study included 29 (13 treated with SOC only and 16 treated with MN-221 in combination with SOC) patients with severe AEA. All patients were administered SOC treatment as follows: supplemental oxygen given to maintain oxygen saturation measured by pulse oximetry of ≧90%; two doses of inhaled beta2-agonist (in this study, albuterol 5 mg) via nebulizer given approximately every 20 minutes; simultaneously with two doses of an inhaled anti-cholinergic agent (in this study, ipratropium 0.5 mg) via nebulizer given approximately every 20 minutes; one dose of corticosteroid given orally (in this study, prednisone 60 mg) or intravenously (in this study, methylprednisolone 125 mg), and intravenous magnesium sulfate (2 gm, diluted with 50-100 mL normal saline) and given over 10 minutes to patients with an FEV1≦25% of predicted upon ED presentation treatment.
MN-221 was administered at the following doses: 16 μg/min for 15 minutes (total of 240 μg); 30 μg/min for 15 minutes (total of 450 μg); 16 μg/min for 15 minutes; 8 μg/min for 105 minutes (total of 1,080 μg). A lyophilized unit dose for of MN-221, containing 2 mg MN-221 and lactose in a 10 mL vial was employed in the administration. Vials containing 2 mg (2000 μg) of MN-221 and vials containing placebo were reconstituted as follows. 4 mL of 5% dextrose in water was added to each 10 mL vial containing MN-221 to make 500 μg/mL stock solution (2000 μg/4 mL=500 μg/mL). 2 mL (1,000 μg) of stock solution was added to 123 mL 5% dextrose in water to make the total volume of 125 mL (123 mL+2 mL=125 mL). Final MN-221 solution equal to 1,000 μg/125 mL or 8 μg/mL was prepared this way.
Patients were administered SOC treatment (inhaled albuterol, 2.5 mg via nebulizer up to every 20 minutes) and ipratropium (0.5 mg via nebulizer up to every 20 minutes) in addition to treatment with MN-221 or placebo.

Human β1 [3] = molecular target: T2, Human β1 (Homo sapiens, UniProt P08588); assay: Cell bioassay, cAMP accumulation, human β1 in HEK; format: cell-based; conditions: read-out: cell bioassay (EC50 cAMP accum.) β1
T2 construct: host or cells: HEK
T2 sequence (P08588 whole entry): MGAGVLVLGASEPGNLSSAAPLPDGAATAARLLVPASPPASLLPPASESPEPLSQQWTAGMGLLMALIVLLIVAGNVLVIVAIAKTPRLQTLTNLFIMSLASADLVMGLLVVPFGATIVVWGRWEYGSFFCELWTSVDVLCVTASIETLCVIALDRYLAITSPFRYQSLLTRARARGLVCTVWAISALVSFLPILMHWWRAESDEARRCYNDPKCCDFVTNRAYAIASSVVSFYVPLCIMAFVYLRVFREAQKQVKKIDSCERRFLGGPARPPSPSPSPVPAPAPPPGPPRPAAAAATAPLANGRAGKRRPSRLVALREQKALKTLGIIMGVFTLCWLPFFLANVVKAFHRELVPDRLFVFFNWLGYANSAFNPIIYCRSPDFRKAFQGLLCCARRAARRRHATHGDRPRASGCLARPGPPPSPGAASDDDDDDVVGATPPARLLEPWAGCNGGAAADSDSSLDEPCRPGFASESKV
Source text: as §1

[4] = molecular target: T3, β2 (GP carbachol-tx trachea) (Cavia porcellus, UniProt Q8K4Z4); assay: Ex vivo organ bioassay (Cerep 13271), GP carbachol-treated trachea
T3 construct: tissue Cerep; host or cells: guinea pig trachea, carbachol-contracted
T3 sequence (Q8K4Z4 whole entry): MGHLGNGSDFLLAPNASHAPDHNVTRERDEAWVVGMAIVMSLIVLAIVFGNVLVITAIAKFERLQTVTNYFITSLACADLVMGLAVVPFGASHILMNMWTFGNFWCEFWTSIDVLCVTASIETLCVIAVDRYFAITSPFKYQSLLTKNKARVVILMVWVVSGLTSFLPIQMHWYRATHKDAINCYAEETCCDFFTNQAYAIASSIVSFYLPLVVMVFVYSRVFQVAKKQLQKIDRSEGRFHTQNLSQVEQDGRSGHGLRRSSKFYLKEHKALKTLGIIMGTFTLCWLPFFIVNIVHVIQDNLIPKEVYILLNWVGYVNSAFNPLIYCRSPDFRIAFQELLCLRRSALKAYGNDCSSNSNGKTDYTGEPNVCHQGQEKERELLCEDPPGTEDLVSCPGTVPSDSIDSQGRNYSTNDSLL
Source text: as §1

Human β1 [5] = molecular target: T2, Human β1; assay: Competitive binding (Cerep 14320), human β1; conditions: HEK (Human β1)
Source text: as §1

β1 (GP Rt atrium) = assay: Ex vivo organ bioassay (Cerep 13271), GP right atrium
Source text: as §1

EC50 (Hu β2 [1]; CHO (Hu β2), read-out: cell bioassay (EC50 cAMP accum.) β2)	cell bioassay cAMP accum. β1/β2 (Hu β2 [1]; ratio of EC50 β1 to β2)	IC50 (Hu β2 [2]; CHO (Hu β2))	Competitive Binding β1/β2 (Hu β2 [2]; ratio of IC50 β1 to β2)	EC50 (Human β1 [3])	EC50 ([4]; GP carbachol-tx trachea (% salbut))	ex vivo Organ bioassay β1/β2 ([4]; ratio of EC39 (atrium) to EC50 (trachea))	IC50 (Human β1 [5])	SMILES	heart rate, agent alone (telemetered dogs)	MAP or QTc, agent alone (telemetered dogs)	reversal of ragweed-induced bronchoconstriction (ragweed sensitized dogs)	safety (ECG, laboratory, adverse experience data) (patients with severe AEA; MN-221 added to standardized care)	heart rate change in patients (patients with severe AEA; MN-221 combined with SOC, FIG. 2)	Improvement in FEV1 values versus SOC (patients with severe AEA; MN-221 in addition to SOC treatment)	hospitalization rate (patients with severe AEA; MN-221 with SOC, 4 of 16 patients, SOC only 54% (7 of 13))	MAP, QTc with combination therapy (telemetered dogs; MN-221 plus albuterol)	heart rate, MN-221 added on top of albuterol (telemetered dogs; clinically-relevant doses of both)	agonist character (β1 (GP Rt atrium); GP Rt atrium)	ex vivo Organ bioassay est EC39 β1 (β1 (GP Rt atrium); GP Rt atrium (% isoprot), EC39 = 39% of isoproterenol maximum response)	Emax (β1 (GP Rt atrium); GP Rt atrium, % of isoproterenol maximum response)
								CC(C)(C)NCC(O)c1ccc(O)c(CO)c1 (stereo not shown) [albuterol, reference compound]	increased heart rate to a modest level	No adverse changes										
13 nM	>3000	270 nM	42	> 50000 nM	28 nM	36	11800 nM	CN(C)C(=O)COc1ccc2c(c1)C[C@@H](NC[C@H](O)c1ccc(O)c(CCO)c1)CC2 [MN-221, acetamide, N,N-dimethyl-2-[[(7S)-5,6,7,8-tetrahydro-7-[[(2R)-2-hydroxy-2-[4-hydroxy-3-(2-hydroxyethyl)phenyl]ethyl]amino]-2-naphthalenyl]oxy], sulfate]	increased heart rate to a modest level	No adverse changes	statistically significant, and near maximal reversal of bronchoconstriction	No safety concerns	absence of significant heart rate increase	generally appeared to be greater	25%	not adversely changed	no additional increase in heart rate	a partial agonist.	~1* μM	Emax = 39%

Reference: US8420697B2, “Treatment of acute exacerbation of asthma and reduction of likelihood of hospitalization of patients suffering therefrom” (MediciNova, Inc., priority 2009, dated 2013)
